PMC10707934, “Design and Synthesis of Novel α-Methylchalcone Derivatives, Anti-Cervical Cancer Activity, and Reversal of Drug Resistance in HeLa/DDP Cells” (Molecules, 2023)

Legend:
HeLa cells [1] = assay: MTT anti-proliferation assay, HeLa; assay type: cell-based, human; conditions: Homo sapiens, 48 h, mean ± SD
Protocol: All cell types, at a volume of 200 µL per well, were inoculated in 96-well plates at a density of 2.5 × 10^4 cells / mL and cultured for 24 h in an incubator with 5% CO2 at 37 °C. The old culture medium was replaced with 200 µL of fresh medium per well containing positive compounds, at concentrations of 1, 6.25, 12.5, 25, 50, and 100 μM. After 48 h of culture, 20 µL per well of 5 mg·mL^−1 MTT solution was added. After 4 h of culture, the old solution was discarded, and 150 µL per well of DMSO solution was added. Using an enzyme labeler (Thermo Fisher Scientific, Multiskan GO, Waltham, MA, USA), the plates were shaken for 10 min, OD values were determined at 490 nm, and the inhibition rate was calculated. Non-linear regression fitting of the cell growth rate was carried out using SPSS 23.0, and the IC50 of the compound was calculated. The inhibition rate was calculated using the formula: [(ODempty − ODtest)/(ODempty − ODnegative group)] × 100%, (ODempty blank group absorbance, ODtest absorbance of administration group, ODnegative group without cell culture medium). Each group contained six compound holes, and the experimental results averaged three trials. Complete medium containing only cells was used as the blank control; a complete medium without cells as was used as the negative control; and cisplatin, paclitaxel, and adriamycin were used as the positive controls. The concentration gradient was the same as that used for compounds 3a–3p. […]

SiHa cells = assay: MTT anti-proliferation assay, SiHa; assay type: cell-based, human; conditions: Homo sapiens, 48 h, mean ± SD
Protocol: (§1) All cell types, at a volume of 200 µL per well, were inoculated in 96-well plates at a density of 2.5 × 10^4 cells / mL and cultured for 24 h in an incubator with 5% CO2 at 37 °C. The old culture medium was replaced with 200 µL of fresh medium per well containing positive compounds, at concentrations of 1, 6.25, 12.5, 25, 50, and 100 μM. After 48 h of culture, 20 µL per well of 5 mg·mL^−1 MTT solution was added. After 4 h of culture, the old solution was discarded, and 150 µL per well of DMSO solution was added. Using an enzyme labeler (Thermo Fisher Scientific, Multiskan GO, Waltham, MA, USA), the plates were shaken for 10 min, OD values were determined at 490 nm, and the inhibition rate was calculated. Non-linear regression fitting of the cell growth rate was carried out using SPSS 23.0, and the IC50 of the compound was calculated. The inhibition rate was calculated using the formula: [(ODempty − ODtest)/(ODempty − ODnegative group)] × 100%, (ODempty blank group absorbance, ODtest absorbance of administration group, ODnegative group without cell culture medium). Each group contained six compound holes, and the experimental results averaged three trials. Complete medium containing only cells was used as the blank control; a complete medium without cells as was used as the negative control; and cisplatin, paclitaxel, and adriamycin were used as the positive controls. The concentration gradient was the same as that used for compounds 3a–3p.

C33A cells = assay: MTT anti-proliferation assay, C33A; assay type: cell-based, human; conditions: Homo sapiens, C-33-A, 48 h, mean ± SD
Protocol: as §1

[2] = system: human cervical epithelial cells H8; assay: MTT toxicity assay, normal cervical epithelial cells H8; assay type: cell-based; conditions: Homo sapiens, Epithelial cell, 48 h, mean ± SD
Protocol: as §1

HeLa/DDP cells [3] = assay: MTT anti-cisplatin-resistant cervical cancer activity, HeLa/DDP; assay type: cell-based, human; conditions: 48 h; for resistance index (RI): HeLa/DDP versus parental HeLa; for IC50: Homo sapiens, HeLa/DDP, MTT, mean ± SD
Protocol: as §1
To mitigate the detrimental consequences arising from the fixation of resistance reversal agents, concentrations that yielded a tumor cell proliferation rate reduction of less than 10% were selected. Consequently, the inhibitory efficacy of compound 3k against HeLa/DDP cells was assessed in conjunction with cisplatin at concentrations of 0.25, 0.5, and 1 μM. The experimental procedure employed was akin to that elucidated in Section 3.3.2. The impact of verapamil (6 μM) and 3k (0.25, 0.5, and 1 μM) on P-gp expression was ascertained via Western blot experiments, employing the same methodology delineated in Section 3.3.4.

HeLa/DDP cells [4] = assay: Annexin V-FITC/PI pro-apoptosis assay, HeLa/DDP; assay type: cell-based, human; conditions: 24 h, 20 μM
Protocol: Cell fluid (2 mL per well) at a concentration of 1.5 × 10^5 cells / mL was added to a 6-well plate and cultured in a cell incubator with 5% CO2 at 37 °C for 24 h. The old solution was discarded; 2 mL of the medium containing compound 3k was added to each well at a concentration gradient of 2.5, 5, and 10 μM; and the experiment was repeated three times at each concentration. Complete medium containing only cells was used as a blank control group, and 20 μM of cisplatin injection and chalcone was used as a positive control. Cells were harvested following a 24 h incubation period, adhering to the guidelines provided with the BD kit (BD Biosciences Pharmingen, 556547, 10975 Torreyana Road, San Diego, CA, USA). Subsequently, the cells were subjected to staining in a light-restricted environment at ambient temperature for a duration of 15 min, followed by filtration and analysis via flow cytometry.
The pro-apoptotic experiments of compound 3k, cisplatin, and chalcone on HeLa/DDP were performed in the same way as in Section 3.3.3. Western Blotting Analysis in the same way as in Section 3.3.4.

HeLa cells [5] = assay: Transwell migration assay, HeLa; assay type: cell-based, human; conditions: 24 h, 20 μM, control 1176
Protocol: (§2) HeLa (5 × 10^4 cells) was suspended in 200 μL of FBS-free medium. The top chamber contained the vehicle and various concentrations of compound 3k (2.5, 5, and 10 μM), cisplatin (20 μM) and chalcone (20 μM). The lower chamber was filled with 600 μL of medium containing 10% FBS. After incubating at 37 °C for 24 h, the cells on the top side of the Transwell membrane were removed with a cotton tip. Cells were fixed and stained with 4% paraformaldehyde (LEAGENE BIOTECHNOLOGY, Cat:DF0135, Lot:0823A23, Zhongguancun, Haidian District, Beijing, China) and 0.1% crystal violet solutions (Leagene Biotechnology, Cat:DZ0055, Lot:0508A23, Zhongguancun, Haidian District, Beijing, China) for 30 min to fix cells trapped on the perforated side of the membrane.

HeLa cells [6] = assay: Transwell Matrigel invasion assay, HeLa; assay type: cell-based, human; conditions: 24 h, 20 μM
Protocol: (§3) The Transwell ([…], Corning Incorporated, New York, NY, USA) was precoated using 50 μL Matrigel for 5 h at 37 °C to achieve solidification. HeLa cells was collected and suspended in a serum-free medium containing varying concentrations (0, 2.5, 5, and 10 μM) of compound 3k, along with 20 μM cisplatin and chalcone. These cell suspensions were then added to the upper wells of a permeabilization chamber at a density of 5 × 10^5 cells/mL. In the lower wells, 600 μL of DMEM containing 10% FBS was added, which had been prepared using 50 μL of Matrigel (diluted 1:8 with serum-free medium from Corning/BD Biosciences). After 24 h of incubation at 37 °C, the invasion cells were fixed using 4% paraformaldehyde and stained using 0.1% crystal violet for 30 min. Then, the chambers were washed using PBS and left to dry. Images were photographed using an inverted fluorescence microscope (Leica Instruments Co., Ltd., Microsystems CMS GmbH, Weizler, Hesse, Germany) and counted using Image J software (V1.8.0.112) for three independent fields randomly.

HeLa/DDP cells [7] = assay: Transwell migration assay, HeLa/DDP; assay type: cell-based, human; conditions: 24 h, 20 μM, control 497
Protocol: as §2
(§4) The experimental methods for the effects of compound 3k, cisplatin, and chalcone on HeLa/DDP cell invasion and migration were the same as in Section 3.3.6.

HeLa/DDP cells [8] = assay: Transwell Matrigel invasion assay, HeLa/DDP; assay type: cell-based, human; conditions: 24 h, 20 μM, control 399
Protocol: as §3, §4

[9] = system: α-tubulin, β-tubulin in HeLa cells; assay: Immunofluorescence assay of microtubules, HeLa; assay type: cell-based, human; conditions: 24 h, 3k 1, 2, and 4 μM, colchicine and paclitaxel 2.0 μM
Protocol: (§5) The cells were then fixed by adding 400 μL of 4% paraformaldehyde to each well and incubating for 30 min. 0.1% Triton was added at a volume of 400 μL per well and allowed to incubate for 10 min. Following this, goat serum (10%) was added at 400 μL per well and incubated for 40 min. Primary antibodies (α-tubulin, β-tubulin) were then incubated overnight at a temperature of 4 °C. Subsequently, secondary antibodies (α-mouse, β-rabbit) were incubated for 1.5 h. DAPI staining was performed at 400 μL per well for 5 min, followed by a wash with PBS. Cell climbing tablets were removed and inverted onto slides with sealer. Photographs were captured using a fluorescent inverted microscope.

[10] = system: α-tubulin, β-tubulin in HeLa/DDP cells; assay: Immunofluorescence assay of microtubules, HeLa/DDP; assay type: cell-based, human; conditions: 24 h, 3k 1, 2, and 4 μM, paclitaxel 2.0 μM
Protocol: as §5

[11] = system: α-/β-tubulins in HeLa cells; assay: Western blot of polymerized and dissociated α-/β-tubulins, HeLa; assay type: cell-based, human; conditions: 24 h, versus control; for expression of dissociated state α and β microtubule proteins: 3k 4 μM, colchicine 2 μM, paclitaxel 2.0 μM; for expression of α and β microtubule proteins in the polymerized state: 3k 2 and 4 μM, colchicine and paclitaxel 2.0 μM
Protocol: (§6) HeLa cells were cultured in 60 mm Petri dishes at a density of 1.0 × 10^6 cells per dish and treated with 0.1% DMSO (vehicle), positive control chalcone (20 μM), and different concentrations of compound 3k (2.5, 5, and 10 μM), respectively. Following a 24 and 48 h incubation period, the cells were harvested via centrifugation and subsequently washed twice with PBS that had been chilled to 0 °C. Next, the cells were homogenized using RIPA lysis buffer (Solarbio, Beijing, China) and supplemented with 1% PMSF (MP Biomedicals, 0754-25G, CAS:329-98-6, Santa Ana, CA, USA) and 1% mixed phosphatase inhibitor (Solarbio, Beijing, China). The resulting lysates were then incubated on ice for 30 min, intermittently vortexed every 5 min, and subsequently centrifuged at 12,000 rpm for 20 min to collect the supernatants.
(§7) Subsequently, the protein concentrations were determined utilizing a BCA Protein Assay Kit (Solarbio, China). An equivalent quantity of the proteins (12 μg) was fractionated via 8–12% sodium dodecyl sulfate–polyacrylamide gel electrophoresis (SDS-PAGE) and transferred onto nitrocellulose membranes (Amersham Biosciences, Amersham, UK). Following this, the membranes were obstructed with 5% nonfat dried milk in TBS containing 1% Tween-20 for a duration of 2 h at ambient temperature and were subjected to overnight incubation with specific primary antibodies (CST, Boston, MA, USA) at 4 °C. Following three washes in TBST, the membranes were subjected to incubation with the suitable HRP-conjugated secondary antibodies at ambient temperature for a duration of 2 h. The blots were subsequently visualized using enhanced chemiluminescence (Biosharp, Shanghai, China) and detected utilizing a PE 0723 imager (ProteinSimple, Silicon Valley, CA, USA). Each experiment was conducted in triplicate at minimum and analyzed employing Image J software (V1.8.0.112). β-actin(ab198991) rabbit mAb, goat anti-rabbit IgG (H + L) HRP—#S0001 (Affinity). Bax (ab289364), Bcl-2 (ab218123), MDR1/ABCB1 (E1Y7B) rabbit mAb #13342 (CST).
(§8) Polymerized and free microtubule proteins were extracted using the methods described in references, respectively. Following drug intervention, the cells were subjected to two washes with preheated microtubule protein buffer MTSB at 37 °C. Subsequently, 70 μL of MTSB was added, and the cells were lysed for 10 min at 37 °C in a constant temperature chamber shielded from light. The cells were then scraped with a spatula and centrifuged at 14,000 r/min for 10 min at room temperature. The resulting supernatant, which represented the free state microtubule protein suspension, was subsequently removed. The remaining precipitate was treated with RIPA lysis solution, followed by lysis on ice for a duration of 30 min. Subsequently, centrifugation was performed at a temperature of 4 °C and a speed of 12,000 revolutions per minute for a duration of 20 min. The resulting supernatant was collected as a suspension of polymerized microtubule protein. The Western blotting procedure was the same as in Section 3.3.4. α-Tubulin (DM1A) Mouse mAb#3873 (CST), β-Tubulin (D2N5G) Rabbit mAb #15115 (CST), CoraLite488-conjugated Goat Anti-Mouse lgG(H+L) (Proteintech); CoraLite488-conjugated Goat Anti-Rabbit lgG(H+L) (Proteintech); β-actin(ab198991) rabbit mAb, Goat Anti-Mouse IgG H&L (HRP) (ab6789); Goat anti-Rabbit IgG (H+L) HRP—#S0001 (Affinity).

[12] = system: α-/β-tubulins in HeLa/DDP cells; assay: Western blot of polymerized and dissociated α-/β-tubulins, HeLa/DDP; assay type: cell-based, human; conditions: 24 h, versus control; for expression of dissociated state α and β microtubule proteins: 3k 4 μM, colchicine and paclitaxel 2.0 μM; for expression of polymerized state α and β microtubule proteins: positive drugs 2.0 μM
Protocol: as §6, §7, §8

| IC50 (HeLa cells [1]) [µM] | IC50 (HeLa/DDP cells [3]) [µM] | Structure (SMILES) | IC50 (SiHa cells) [µM] | IC50 (C33A cells) [µM] | IC50 [2] [µM] | resistance index (RI) (HeLa/DDP cells [3]) | pro-apoptotic rate (HeLa/DDP cells [4]) [%] | number of migrated cells (HeLa cells [5]) | number of cells undergoing invasion (HeLa cells [6]) | number of migrated cells (HeLa/DDP cells [7]) | number of invasion cells (HeLa/DDP cells [8]) | microtubule immunofluorescence (α green, β red) [9] | microtubule immunofluorescence (α green, β red) [10] | expression of dissociated state α and β microtubule proteins [11] | expression of α and β microtubule proteins in the polymerized state [11] | expression of dissociated state α and β microtubule proteins [12] | expression of polymerized state α and β microtubule proteins [12] |
| --- | --- | --- | --- | --- | --- | --- | --- | --- | --- | --- | --- | --- | --- | --- | --- | --- | --- |
| 67 ± 4.56 | 88 ± 7.27 | O=C(/C=C/c1ccccc1)c1ccccc1 [Chalcone, (E)-chalcone] | 62 ± 1.84 | 37.5 ± 1.5 | 78.5 ± 7.78 | 1.31 | 13.8 | 689 | 422 | 319 | 347 | – | – | – | – | – | – |
| 23 ± 1.33 | 130 ± 5.84 | CC(=O)O[C@H]1C(=O)[C@@]2(C)[C@H]([C@H](OC(=O)c3ccccc3)[C@]3(O)C[C@H](OC(=O)[C@H](O)[C@@H](NC(=O)c4ccccc4)c4ccccc4)C(C)=C1C3(C)C)[C@]1(OC(C)=O)CO[C@@H]1C[C@@H]2O [Paclitaxel, paclitaxel] | – | – | – | 5.66 | – | – | – | – | – | fluorescence intensity of microtubules surrounding the cells decreased or vanished | no significant alteration in the fluorescence intensity of the microtubules surrounding the cells | significantly decreased | significantly enhanced | minimal impact | did not yield a significant impact |
| – | – | COc1cc2c(c(OC)c1OC)-c1ccc(OC)c(=O)cc1[C@@H](NC(C)=O)CC2 [colchicine] | – | – | – | – | – | – | – | – | – | – | – | significantly increased | decrease | increase | significant decrease |
